Laboratory results from patent US8952024B2, “Herbicidal pyrimidone derivatives” (E I du Pont de Nemours and Company, priority 2009, dated 2015).

Assays:
Assay type in all cases: in vivo
[1] = tested on: winter barley (Hordeum vulgare); assay: Test B postemergence plant response; conditions: for Barley plant response rating (0 to 100 scale): 0 is no effect
Outline: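 Visual ratings from 0 (no effect) to 100 (complete control), made against controls 13–15 days after treatment, kept in a greenhouse. Compounds were applied postemergence to potted plants at the 1- to 4-leaf stage (2–18 cm).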

[2] = tested on: barnyardgrass (Echinochloa crus-galli); assay: Test B flooded paddy test; conditions: for Plant response rating, Flood, Barnyardgrass: 250 g ai/ha, flooded paddy test, visual rating on 0 to 100 scale (0 no effect, 100 complete control) after 13 to 15 days; for Plant response rating, Barnyardgrass: Flood (flooded paddy test), 13 to 15 days; for Barnyardgrass plant response rating: Flood, scale 0 to 100 (0 no effect, 100 complete control)
Outline: (§1)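 Flooded-pot test: water raised to 3 cm above soil when treating, compound put in the water, level unchanged thereafter. Plants were at 2 leaves. Readout after 13 to 15 days, visual, relative to controls; 0 signifies no effect and 100 complete control.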

[3] = tested on: rice (Oryza sativa); assay: Test B flooded paddy test; conditions: for Plant response rating, Flood, Rice: 250 g ai/ha, flooded paddy test, visual rating on 0 to 100 scale (0 no effect, 100 complete control) after 13 to 15 days; for Plant response rating, Rice: Flood (flooded paddy test), 13 to 15 days; for Rice plant response rating: Flood, scale 0 to 100 (0 no effect, 100 complete control)
Outline: as §1

[4] = tested on: ducksalad (Heteranthera limosa); assay: Test B flooded paddy test; conditions: for Plant response rating, Flood, Ducksalad: 250 g ai/ha, flooded paddy test, visual rating on 0 to 100 scale (0 no effect, 100 complete control) after 13 to 15 days; for Plant response rating, Ducksalad: Flood (flooded paddy test), 13 to 15 days; for Ducksalad plant response rating: Flood, scale 0 to 100 (0 no effect, 100 complete control)
Outline: as §1

[5] = tested on: umbrella sedge (Cyperus difformis); assay: Test B flooded paddy test; conditions: for Plant response rating, Flood, Sedge, Umbrella: 250 g ai/ha, flooded paddy test, visual rating on 0 to 100 scale (0 no effect, 100 complete control) after 13 to 15 days; for Plant response rating, Sedge, Umbrella: Flood (flooded paddy test), 13 to 15 days; for Sedge, Umbrella plant response rating: Flood, scale 0 to 100 (0 no effect, 100 complete control)
Outline: as §1

[6] = tested on: barnyardgrass (Echinochloa crus-galli); assay: Test A pre-/postemergence plant response
Outline: (§2)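 Greenhouse trial, ~10 days. Soil (loam/sand) sprayed preemergence after seeding; emerged plants (1–2 leaf, 2–10 cm) sprayed postemergence in parallel. Response = visual injury vs untreated control, 0–100.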

[7] = tested on: pigweed (Amaranthus retroflexus); assay: Test A pre-/postemergence plant response
Outline: as §2

[8] = tested on: giant foxtail (Setaria faberii); assay: Test A pre-/postemergence plant response
Outline: as §2

[9] = tested on: corn (Zea mays); assay: Test A pre-/postemergence plant response
Outline: as §2

[10] = tested on: morningglory (Ipomoea spp.); assay: Test A pre-/postemergence plant response
Outline: as §2

[11] = tested on: wheat (Triticum aestivum); assay: Test A pre-/postemergence plant response
Outline: as §2

[12] = tested on: large crabgrass (Digitaria sanguinalis); assay: Test A pre-/postemergence plant response
Outline: as §2

[13] = tested on: velvetleaf (Abutilon theophrasti); assay: Test A pre-/postemergence plant response
Outline: as §2

[14] = 62 g ai/ha, postemergence, 100 is complete control, 13 to 15 days
[15] = Postemergence, 125 g ai/ha, scale 0 to 100 (0 no effect, 100 complete control)
[16] = Postemergence, 250 g ai/ha, scale 0 to 100 (0 no effect, 100 complete control)
[17] = 62 g ai/ha, scale of 0 to 100 where 0 is no effect and 100 is complete control
[18] = 125 g ai/ha, scale 0 to 100, 0 is no effect, 100 is complete control
[19] = Postemergence, 125 g ai/ha, 0 to 100 scale where 0 is no effect and 100 is complete control
[20] = Postemergence, 500 g ai/ha, 0 to 100 scale, 0 = no effect, 100 = complete control, approx. ten days
[21] = Preemergence, 125 g ai/ha, 0 to 100 scale, 0 = no effect, 100 = complete control
[22] = Preemergence, 500 g ai/ha, visual injury, 0 to 100 scale (0 no effect, 100 complete control), approx. ten days
[23] = 31 g ai/ha, postemergence, scale 0 to 100, 0 is no effect, 100 is complete control
[24] = 31 g ai/ha, scale of 0 to 100 where 0 is no effect and 100 is complete control
[25] = Postemergence, 125 g ai/ha, visual injury, 0 to 100 scale (0 no effect, 100 complete control), approx. ten days

COCCCn1c(-c2cccc(F)c2)ncc(C(=O)C2=C(O)CCCC2=O)c1=O [Compound 126]
Barley plant response rating (0 to 100 scale) [1, 14]: 5 | Plant response rating, Barley ([1]; Postemergence, 31 g ai/ha, 0 to 100 scale (0 no effect, 100 complete control)): 5 | Plant response rating, Barley [1, 15]: 15 | Plant response rating, Barley [1, 16]: 40 | Plant response rating, Flood, Barnyardgrass [2]: 75 | Plant response rating, Barnyardgrass [2, 17]: 45 | Plant response rating, Barnyardgrass [2, 18]: 60 | Barnyardgrass plant response rating ([2]; 31 g ai/ha): 20 | Plant response rating, Flood, Rice [3]: 15 | Plant response rating, Rice [3, 17]: 0 | Plant response rating, Rice [3, 18]: 0 | Rice plant response rating ([3]; 31 g ai/ha): 0 | Plant response rating, Flood, Ducksalad [4]: 85 | Plant response rating, Ducksalad [4, 17]: 80 | Plant response rating, Ducksalad [4, 18]: 85 | Ducksalad plant response rating ([4]; 31 g ai/ha): 75 | Plant response rating, Flood, Sedge, Umbrella [5]: 85 | Plant response rating, Sedge, Umbrella [5, 17]: 70 | Plant response rating, Sedge, Umbrella [5, 18]: 80 | Sedge, Umbrella plant response rating ([5]; 31 g ai/ha): 50 | Plant response rating, Barnyardgrass [6, 19]: 80 | Plant response rating, Barnyardgrass [6, 20]: 90 | Plant response rating, Barnyardgrass [6, 21]: 70 | Plant response rating, Barnyardgrass [6, 22]: 100 | Plant response rating, Pigweed [7, 19]: 90 | Plant response rating, Pigweed [7, 20]: 100 | Plant response rating, Pigweed [7, 21]: 100 | Plant response rating, Pigweed [7, 22]: 100 | Plant response rating, Foxtail, Giant [8, 19]: 70 | Plant response rating, Foxtail, Giant [8, 20]: 80 | Plant response rating, Foxtail, Giant [8, 21]: 60 | Plant response rating, Foxtail, Giant [8, 22]: 90 | Plant response rating, Corn [9, 19]: 10 | Plant response rating, Corn [9, 20]: 60 | Plant response rating, Corn [9, 21]: 0 | Plant response rating, Corn [9, 22]: 20 | Plant response rating, Morningglory [10, 19]: 100 | Plant response rating, Morningglory [10, 20]: 100 | Plant response rating, Morningglory [10, 21]: 70 | Plant response rating, Morningglory [10, 22]: 90 | Plant response rating, Wheat [11, 19]: 0 | Plant response rating, Wheat [11, 20]: 20 | Plant response rating, Wheat [11, 21]: 0 | Plant response rating, Wheat [11, 22]: 20 | Plant response rating, Crabgrass, Large [12, 19]: 90 | Plant response rating, Crabgrass, Large [12, 20]: 90 | Plant response rating, Crabgrass, Large [12, 21]: 90 | Plant response rating, Crabgrass, Large [12, 22]: 100 | Plant response rating, Velvetleaf [13, 19]: 100 | Plant response rating, Velvetleaf [13, 20]: 100 | Plant response rating, Velvetleaf [13, 21]: 80 | Plant response rating, Velvetleaf [13, 22]: 100

COCCn1c(-c2ccco2)ncc(C(=O)C2=C(O)CCCC2=O)c1=O [Compound 111]
Plant response rating, Barley [1, 23]: 0 | Barley plant response rating (0 to 100 scale) [1, 14]: 0 | Plant response rating, Barley [1, 15]: 5 | Plant response rating, Barley [1, 16]: 30 | Plant response rating, Flood, Barnyardgrass [2]: 60 | Plant response rating, Barnyardgrass [2, 17]: 40 | Plant response rating, Barnyardgrass [2, 18]: 50 | Barnyardgrass plant response rating ([2]; 31 g ai/ha): 0 | Plant response rating, Flood, Rice [3]: 30 | Plant response rating, Rice [3, 17]: 0 | Plant response rating, Rice [3, 18]: 0 | Rice plant response rating ([3]; 31 g ai/ha): 0 | Plant response rating, Flood, Ducksalad [4]: 75 | Plant response rating, Ducksalad [4, 17]: 30 | Plant response rating, Ducksalad [4, 18]: 75 | Ducksalad plant response rating ([4]; 31 g ai/ha): 30 | Plant response rating, Flood, Sedge, Umbrella [5]: 85 | Plant response rating, Sedge, Umbrella [5, 17]: 75 | Plant response rating, Sedge, Umbrella [5, 18]: 80 | Sedge, Umbrella plant response rating ([5]; 31 g ai/ha): 0 | Plant response rating, Barnyardgrass [6, 19]: 90 | Plant response rating, Barnyardgrass [6, 20]: 90 | Plant response rating, Barnyardgrass [6, 21]: 30 | Plant response rating, Barnyardgrass [6, 22]: 90 | Plant response rating, Pigweed [7, 19]: 100 | Plant response rating, Pigweed [7, 20]: 100 | Plant response rating, Pigweed [7, 21]: 100 | Plant response rating, Pigweed [7, 22]: 100 | Plant response rating, Foxtail, Giant [8, 19]: 60 | Plant response rating, Foxtail, Giant [8, 20]: 90 | Plant response rating, Foxtail, Giant [8, 22]: 70 | Plant response rating, Corn [9, 19]: 0 | Plant response rating, Corn [9, 20]: 30 | Plant response rating, Corn [9, 21]: 0 | Plant response rating, Corn [9, 22]: 0 | Plant response rating, Morningglory [10, 19]: 100 | Plant response rating, Morningglory [10, 20]: 100 | Plant response rating, Morningglory [10, 21]: 50 | Plant response rating, Morningglory [10, 22]: 80 | Plant response rating, Wheat [11, 19]: 0 | Plant response rating, Wheat [11, 20]: 0 | Plant response rating, Wheat [11, 21]: 0 | Plant response rating, Wheat [11, 22]: 0 | Plant response rating, Crabgrass, Large [12, 19]: 90 | Plant response rating, Crabgrass, Large [12, 20]: 90 | Plant response rating, Crabgrass, Large [12, 21]: 90 | Plant response rating, Crabgrass, Large [12, 22]: 100 | Plant response rating, Velvetleaf [13, 19]: 100 | Plant response rating, Velvetleaf [13, 20]: 100 | Plant response rating, Velvetleaf [13, 21]: 90 | Plant response rating, Velvetleaf [13, 22]: 100

CCCCc1ncc(C(=O)C2=C(O)CCCC2=O)c(=O)n1-c1ccccc1C [Compound 62]
Plant response rating, Barley [1, 23]: 0 | Plant response rating, Barley ([1]; Postemergence, 62 g ai/ha, scale 0 (no effect) to 100 (complete control), 13 to 15 days): 5 | Plant response rating, Barley ([1]; Postemergence, 125 g ai/ha, visual rating after 13 to 15 days, scale 0 (no effect) to 100 (complete control)): 5 | Plant response rating, Barley [1, 16]: 30 | Plant response rating, Flood, Barnyardgrass [2]: 0 | Plant response rating, Barnyardgrass [2, 24]: 0 | Plant response rating, Barnyardgrass [2, 17]: 0 | Plant response rating, Barnyardgrass [2, 18]: 0 | Plant response rating, Flood, Rice [3]: 0 | Plant response rating, Rice [3, 24]: 0 | Plant response rating, Rice [3, 17]: 0 | Plant response rating, Rice [3, 18]: 0 | Plant response rating, Flood, Ducksalad [4]: 30 | Plant response rating, Ducksalad [4, 24]: 0 | Plant response rating, Ducksalad [4, 17]: 0 | Plant response rating, Ducksalad [4, 18]: 0 | Plant response rating, Flood, Sedge, Umbrella [5]: 0 | Plant response rating, Sedge, Umbrella [5, 24]: 0 | Plant response rating, Sedge, Umbrella [5, 17]: 0 | Plant response rating, Sedge, Umbrella [5, 18]: 0 | Barnyardgrass plant response rating [6, 25]: 80 | Plant response rating, Barnyardgrass [6, 20]: 90 | Plant response rating, Barnyardgrass [6, 21]: 10 | Plant response rating, Barnyardgrass [6, 22]: 90 | Pigweed plant response rating [7, 25]: 90 | Plant response rating, Pigweed [7, 20]: 100 | Plant response rating, Pigweed [7, 21]: 80 | Plant response rating, Pigweed [7, 22]: 100 | Foxtail, Giant plant response rating [8, 25]: 70 | Plant response rating, Foxtail, Giant [8, 20]: 90 | Plant response rating, Foxtail, Giant [8, 21]: 60 | Plant response rating, Foxtail, Giant [8, 22]: 70 | Corn plant response rating [9, 25]: 30 | Plant response rating, Corn [9, 20]: 70 | Plant response rating, Corn [9, 21]: 0 | Plant response rating, Corn [9, 22]: 20 | Morningglory plant response rating [10, 25]: 100 | Plant response rating, Morningglory [10, 20]: 100 | Plant response rating, Morningglory [10, 21]: 90 | Plant response rating, Morningglory [10, 22]: 100 | Wheat plant response rating [11, 25]: 0 | Plant response rating, Wheat [11, 20]: 20 | Plant response rating, Wheat [11, 21]: 0 | Plant response rating, Wheat [11, 22]: 10 | Crabgrass, Large plant response rating [12, 25]: 70 | Plant response rating, Crabgrass, Large [12, 20]: 90 | Plant response rating, Crabgrass, Large [12, 21]: 60 | Plant response rating, Crabgrass, Large [12, 22]: 90 | Velvetleaf plant response rating [13, 25]: 100 | Plant response rating, Velvetleaf [13, 20]: 100 | Plant response rating, Velvetleaf [13, 21]: 70 | Plant response rating, Velvetleaf [13, 22]: 90
